# In US6395786B1, “Sleep inducing agent” (Taisho Pharmaceutical Co., Ltd., priority 1998, dated 2002):
# Test system: male rhesus monkeys
# Experiment: Sleep-inducing test by cisternal administration (videotape sleep score)
# Format: in vivo
# Conditions: 10 μg/monkey, 45 minutes after the administration, FIG. 2
# Procedure: [Sleep-inducing Test by Cisternal Administration]
# Three male rhesus monkeys weighing 3.6-4.4 kg were individually placed in cages, and the behaviors of the animals were recorded by videotape for an hour before administration of the drug and for 5 hours after administration of the drug. Compound 32 and prostaglandin D2 methyl ester (PGD2) were each dissolved in saline solution and sterilized through a Millipore filter. The drugs were infused cisternally to the monkeys anesthetized with isohalothane inhalation. The doses were 1 μg and 10 μg/0.1 ml/monkey. The same doses of the vehicle were infused cisternally to give a control group. The test was carried out according to the following test schedule.
# Week 1: Group treated with vehicle
# Week 2: Group treated with 1 μg of Compound 32/monkey
# Week 3: Group treated with 10 μg of Compound 32/monkey
# Week 4: Group treated with 10 μg of PGD2/monkey
# To determine the sleep, the period for which the monkey closed both eyes was measured at intervals of 15 minutes by playing back the recorded videotape, and the results were scored according to the following scales.
smiles,measurement,value
CCCCC[C@H](O)/C=C/[C@H]1C(=O)C[C@H](O)[C@@H]1C/C=C\CCCC(=O)OC [prostaglandin D2 methyl ester],sleep action observed,transient sleep action
